Laboratory results: patent US9676798B2, “Cationic oligonucleotides, automated methods for preparing same and their uses” (CENTRE NATIONAL DE LA RECHERCHE SCIENTIFIQUE (CNRS), priority 2005, dated 2017)

Tested on: Hela cells
Test: Penetration of cationic oligonucleotides into cells (fluorescence microscopy, propidium iodide)
Format: cell-based
Details: for Cell fluorescence after incubation (penetration into cells): 2 μM, four hours, serum-free MEM, no carrier
Description: Hela cells, grown in 10% (v/v) fetal calf serum containing MEM medium, were plated at 50-60×10^3 cells/well into 4-well chambered borosilicate Lab-Tek dishes one day prior to the experiment. Complete medium was replaced by 0.5 ml serum-free MEM medium. A 5′-cationic fluorescein-conjugated oligonucleotide F—S18N19 (where N19 is TCGAAGTACTCAGCGTAAG (SEQ ID NO:7)) formulation was prepared in sterile PBS. It was added to the cells to a final concentration of 2 μM. Four hours later, the medium was replaced by 1 ml of fresh serum-containing medium. A first picture was taken with a Zeiss axiovert 25 fluorescence microscope, equipped with a FITC filter (FIG. 14A, left). […] After 24 h, the medium was replaced with 1 ml of phenol red-free MEM medium. Propidium iodide (1 mM in water) was added to a final concentration of 10 μM.

Row | Substance | Cell fluorescence after incubation (penetration into cells) | Propidium iodide exclusion and retained fluorescence (after 24 h, propidium iodide 10 μM)
1 | F—N19: control fluorescein oligonucleotide without spermine, N19 is TCGAAGTACTCAGCGTAAG (5' fluorescein conjugate, no spermine, further chemistry not given here) [reference compound] | no fluorescence | –
2 | F—S18N19: 5′-cationic fluorescein-conjugated oligonucleotide, N19 is TCGAAGTACTCAGCGTAAG, 18 spermine residues (5' fluorescein and 18 spermine residues attached, backbone chemistry not given here) | All cells became fluorescent | majority of propidiumless healthy cells that were still fluorescent
